Results on 6 molecules are retold here after patent US20100041661A1, “CASPASE INHIBITORS BASED ON PYRIDAZINONE SCAFFOLD” (LG Life Sciences Ltd., priority 2006, published 2010).

The target of one assay is T1, caspase-8 (Homo sapiens, UniProt Q14790).
T1 construct: p10 and p20 subunits (Thornberry, N. A. et al, Nature, 1992, 356, 768) were expressed in E. coli; made in house; host or cells: E. coli
Put plainly: Assay for the caspase inhibitory effect (fluorescent substrate AcDEVD-AFC). In kind it is biochemical. To be noted: pH 7.5; 2.1 nM caspase-8, 50 μM AcDEVD-AFC, 25° C., pH 7.50; read-out: Caspase-8 Kobs/[I] (converted). Here is the method: Caspase-1 and caspase-8 known as cysteine proteases in the form of α2β2 were expressed, purified, and activated by modifying a method known in Thornberry, N. A. et al, Nature, 1992, 356, 768; Thornberry, N. A. Methods in Enzymology, 1994, 244, 615; Walker, N. P. C. et al. Cell, 1994, 78, 343, and caspase-9 was also purified by a similar method, and the inhibitory activity against them was tested. Briefly describing, p10 and p20 subunits (Thornberry, N. A. et al, Nature, 1992, 356, 768) were expressed in E. coli and purified by nickel column and anionic exchange chromatography to give caspase-1, caspase-8 and caspase-9. The fluorescent substrates AcYVAD-AFC for thus obtained caspase-1, AcDEVD-AFC for caspase-8, and AcLEHD-AFC for caspase-9, were used for determining specific activity of the synthesized inhibitors. The enzyme reaction was carried out at 25° C. with various concentrations of the inhibitors in a buffer solution containing 50 mM HEPES (pH 7.50), 10% (w/v) sucrose, 0.1% (w/v) CHAPS, 100 mM NaCl, 1 mM EDTA, and 10 mM DTT in the presence of 50 μM AcYVAD-AFC for 10 nM caspase-1, 50 μM AcDEVD-AFC for 2.1 nM caspase-8, and 150 μM AcLEHD-AFC for 200 nM caspase-9. The inhibitory constants Ki and Kobs of the inhibitors were determined by measuring the reaction velocity with the time lapse using a fluorescent spectrometer and by obtaining the initial rate constant. Ki was calculated from the Lineweaver Burk Plot, and Kobs from the following Equation 1.
Kobs=−ln(1−At/Aoo)/t [Equation 1]
At means cleavage rate (%) at time t, and
Aoo means the maximum cleavage rate (%).
Spectra MAX GeminiXS Fluorescent Spectrometer of Molecular Device Co. was used at the excitation wavelength of 405 nm and the emission wavelength of 505 nm.

Assay [1] relates to Jurkat cell (ATCC TIB-152). Put plainly: Fas antibody-induced apoptosis of Jurkat cells, WST-1 method. The class given is cell-based. As to conditions: Homo sapiens, apoptosis induced by Fas antibody, alive cells by WST-1. The procedure:
The […] inhibitory activity of the inhibitors was determined by subjecting Jurkat cell (ATCC TIB-152) to apoptosis using Fas antibody (Upstate Biotech 05-201) and by detecting the color change according to the WST-1 method known in Francoeur A. M. and Assalian A. (1996) Biochemica 3, 19-25 to observe the amount of alive Jurkat cells when the cells were treated by the inhibitor. Spectra MAX 340 Spectrometer of Molecular Device Co. was used at the absorbance wavelength of 440 nm.

pIC50: −log10 of the molar value.

T1 sequence (Q14790 217-374 limits assumed, species assumed): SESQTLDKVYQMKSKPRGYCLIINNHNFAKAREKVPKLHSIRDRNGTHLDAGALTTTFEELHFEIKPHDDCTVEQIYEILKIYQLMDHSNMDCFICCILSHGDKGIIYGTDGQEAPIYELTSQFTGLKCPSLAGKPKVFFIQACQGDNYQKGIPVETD
T1 sequence (Q14790 385-479 limits assumed, species assumed): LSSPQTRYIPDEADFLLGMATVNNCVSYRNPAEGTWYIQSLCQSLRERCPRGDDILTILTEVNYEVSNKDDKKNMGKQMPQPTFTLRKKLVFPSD

In the case of `Cc1cc(Cc2ccccc2C(C)(C)C)c(=O)n(C(C)C(=O)N[C@@H](CC(=O)O)C(=O)COc2c(F)c(F)cc(F)c2F)n1` (stereo partly drawn) [Example 3, (S)-3-{2-[5-(2-tert-Butyl-benzyl)-3-methyl-6-oxo-6H-pyridazin-1-yl]-propionylamino}-4-oxo-5-(2,3,5,6-tetrafluoro-phenoxy)-pentanoic acid], the kinact/KI on caspase-8 is 6670 M⁻¹ s⁻¹.

`CCC(C(=O)N[C@@H](CC(=O)O)C(=O)COc1c(F)c(F)cc(F)c1F)n1nc(Cc2ccccc2C(C)(C)C)ccc1=O` (stereo partly drawn) [Example 6, (S)-3-{2-[3-(2-tert-Butyl-benzyl)-6-oxo-6H-pyridazin-1-yl]-butyrylamino}-4-oxo-5-(2,3,5,6-tetrafluoro-phenoxy)-pentanoic acid]: on caspase-8, the kinact/KI was 2830 M⁻¹ s⁻¹.

As for `CCC(C(=O)N[C@@H](CC(=O)O)C(=O)COc1c(F)c(F)cc(F)c1F)n1nccc(Cc2ccccc2C(C)(C)C)c1=O` (stereo partly drawn) [Example 5, (S)-3-{2-[5-(2-tert-Butyl-benzyl)-6-oxo-6H-pyridazin-1-yl]-butyrylamino}-4-oxo-5-(2,3,5,6-tetrafluoro-phenoxy)-pentanoic acid], the kinact/KI at caspase-8 is 33300 M⁻¹ s⁻¹. The pIC50 in assay [1] was 6.77.

For `Cc1cc(Cc2ccccc2C(C)(C)C)c(=O)n(CC(=O)N[C@@H](CC(=O)O)C(=O)COc2c(F)c(F)cc(F)c2F)n1` [Example 4, (S)-3-{2-[5-(2-tert-Butyl-benzyl)-3-methyl-6-oxo-6H-pyridazin-1-yl]-acetylamino}-4-oxo-5-(2,3,5,6-tetrafluoro-phenoxy)-pentanoic acid], the kinact/KI on caspase-8 was 3330 M⁻¹ s⁻¹.

As for `CCC(C(=O)N[C@@H](CC(=O)O)C(=O)COc1c(F)c(F)cc(F)c1F)n1nc(C)cc(Cc2ccccc2C(C)(C)C)c1=O` (stereo partly drawn) [Example 2, (S)-3-{2-[5-(2-tert-Butyl-benzyl)-3-methyl-6-oxo-6H-pyridazin-1-yl]-butyrylamino}-4-oxo-5-(2,3,5,6-tetrafluoro-phenoxy)-pentanoic acid], at caspase-8, the kinact/KI was 33300 M⁻¹ s⁻¹. In assay [1], this molecule had a pIC50 of 6.48.

`CCC(C(=O)NC(CC(=O)O)C(=O)CF)n1nc(C)cc(Cc2ccccc2C(C)(C)C)c1=O` (stereo not drawn) [Example 1, 3-{2-[5-(2-tert-Butyl-benzyl)-3-methyl-6-oxo-6H-pyridazin-1-yl]-butyrylamino}-5-fluoro-4-oxo-pentanoic acid]: at caspase-8, the kinact/KI was 91700 M⁻¹ s⁻¹. The same molecule had a pIC50 in assay [1] of 6.85.
